These results are taken from patent US8420640B2, “Methods of treating amyloid disease using analogs of 1-(4-nitrophenyl) piperazine” (Treventis Corporation, priority 2008, dated 2013).

For one assay, the target named is T1, Aβ40 (Homo sapiens, UniProt P05067).
T1 construct: Compounds Showing Activity Observed in a ThT Functional Aβ 1-40 Aggregation Assay
Kind of assay: ThT functional Aβ 1-40 aggregation assay. It counts as biochemical. The note with it: for IC50: 20 μM Aβ, 20 mM Tris pH 7.4, 150 mM NaCl, 1% DMSO, 37° C.; for Ratio: potency with respect to the compound of Example 7, 1=potency of that compound. The method, then:
Aβ40 (1.0 mg) was pre-treated in a 1.5 mL microfuge tube with HFIP (1 mL) and sonicated for 20 min to disassemble any pre-formed Aβ aggregates. The HFIP was removed with a stream of argon and the Aβ dissolved in Tris base (5.8 mL, 20 mM, pH ˜10). The pH was adjusted to 7.4 with concentrated HCl (˜10 μL) and the solution filtered using a syringe filter (0.2 μm) before being used.
(§1) The kinetic ThT assay for Aβ aggregation is similar to that of Chalifour et al (Chalifour et al, 2003, J. Biol. Chem. 278:34874-81). Briefly, pre-treated Aβ40 (40 μM in 20 mM Tris, pH 7.4), was diluted with an equal volume of 8 μM ThT in Tris (20 mM, pH 7.4, 300 mM NaCl). Aliquots of Aβ/ThT (200 μL) were added to wells of a black polystyrene 96-well plate, followed by 2 μL of a compound in DMSO (variable concentration), or DMSO alone (controls). Incubations were performed in triplicate and were taken to contain 20 μM Aβ, various concentration of compound in 20 mM Tris, pH 7.4, 150 mM NaCl, 1% DMSO. Plates were covered with clear polystyrene lids and incubated at 37° C. in a Tecan Genios microplate reader. Fluorescence readings (λex=450 nm, λem=480 nm) were taken every 15 min., after first shaking at high intensity for 15 s and allowing to settle for 10 s before each reading. Active compounds attenuated the increase in fluorescence over time that occurred in controls. By repeating this procedure over several concentrations, a mean inhibitory concentration (IC50) was measured, as given in the table below. The column “A-syn” represents a similar procedure measuring inhibition of alpha-synuclein aggregation. The column “ratio” is a reproducible assessment of potency with respect to the compound of Example 7, in which 1=potency of that compound: […]

The target of assay [1] is T2, alpha-synuclein (Homo sapiens, UniProt P37840). Kind of assay: alpha-synuclein aggregation inhibition (procedure similar to the ThT assay). Particulars: inhibition of alpha-synuclein aggregation; read-out: A-syn (IC50/μM). It counts as biochemical. As to the method: as §1
Another assay relates to tau protein. Kind of assay: tau protein aggregation over time (FIG. 1). The format is biochemical. The note with it: tau protein 4 μM; compound at 10 μM.
Assay [2] deals with T2, alpha-synuclein. Kind of assay: alpha-synuclein aggregation inhibition (procedure similar to the ThT assay). The format is biochemical. The note with it: alpha-synuclein 6 μM.
In the next assay the test system is amyloid. Kind of assay: circular dichroism scans of amyloid with compound, T=0 to 168 hr (FIGS. 3-6). The note with it: scans at T=0, 24 hr, 96 hr, 120 hr. (CD spectra are sensitive to the conformation of chiral molecules.)
Another assay concerns the target beta-amyloid (Homo sapiens, UniProt P05067). The note with it: cited from earlier work.

T1 sequence (P05067 672-711 limits assumed): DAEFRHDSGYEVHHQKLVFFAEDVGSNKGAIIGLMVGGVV

For `CCc1ccc(C(=O)N2CCN(c3ccc([N+](=O)[O-])c(N4CCOCC4)c3)CC2)cc1`, the IC50 against Aβ40 is 2.7 µM.
For `O=C(c1ccccc1)N1CCN(c2ccc([N+](=O)[O-])c(NCc3ccccc3)c2)CC1`, on Aβ40, the IC50 was in the range of 10 to 20 µM and the Ratio turned out to be 0.09. In addition, the IC50 on alpha-synuclein [1] worked out at 51 µM.
`CN(c1ccccc1)c1cc(N2CCN(C(=O)c3ccccc3)CC2)ccc1[N+](=O)[O-]`: the IC50 against Aβ40 was 9.64 µM; on alpha-synuclein [1] it was 5 µM. For the same compound, the Ratio at Aβ40 was 0.9.
The like results for `CN(C)c1cc(N2CCN(C(=O)c3ccccc3)CC2)ccc1[N+](=O)[O-]` were, in that order, 25 µM, 4 µM and 0.88.
Turning to `CC(=O)Nc1ccc(N2CCN(C(=O)c3ccccc3)CC2)cc1Nc1ccccc1`, the Ratio on Aβ40 was determined as 0.21.
Consider `O=[N+]([O-])c1ccccc1NCc1ccccc1`, for which, on Aβ40, the IC50 was 63 µM and the Ratio was determined as 0.38.
The like results for `COC(=O)c1ccc(N2CCN(C(=O)c3ccccc3)CC2)cc1NCc1ccccc1` were, in that order, 174 µM and 0.14.
The like results for `O=C(c1ccccc1)N1CCN(c2ccc([N+](=O)[O-])cc2NCc2ccccc2)CC1` were, in that order, 18 µM and 0.22.
In the same order, the values of `CC(=O)Nc1cc([N+](=O)[O-])ccc1N1CCN(C(=O)c2ccccc2)CC1` are 105 µM and 0.04.
Take `Nc1ccc(-c2cccc(C(=O)O)c2)cc1Nc1ccccc1`: at Aβ40, the IC50 was determined as 26.6 µM and the Ratio stood at 2.5. Besides, at alpha-synuclein [1], the IC50 came out at 45 µM.
The term inhibition denotes the change of the read-out against control, counted positive when it falls. High values mean strong suppression, low ones little suppression. As for `CN1CCN(c2ccc([N+](=O)[O-])c(NCc3ccccc3)c2)CC1` [Example 4, N-benzyl-5-(4-methylpiperazin-1-yl)-2-nitrobenzenamine], the “ability to inhibit the aggregation of tau protein” value (“ability to inhibit the aggregation” below) with tau protein is “inhibit the aggregation of tau protein”. This compound came in with an inhibition at 10 µM on alpha-synuclein [2] (compound at 10 μM) of 50%. Further, on alpha-synuclein [2] (compound at 50 μM), the “inhibition of aggregation of alpha-synuclein” value is given as “full inhibition”.
Turning to `CCCNc1cc(N2CCN(C(=O)c3ccccc3)CC2)ccc1[N+](=O)[O-]` [Example 6, (4-(4-nitro-3-(propylamino)phenyl)piperazin-1-yl)(phenyl)methanone], the “ability to inhibit the aggregation” value in the assay on tau protein is “inhibit the aggregation of tau protein”.
With `O=C(c1ccccc1)N1CCN(c2ccc([N+](=O)[O-])c(Nc3ccccc3)c2)CC1` [Example 7, (4-(4-nitro-3-(phenylamino)phenyl)piperazin-1-yl)(phenyl)methanone], on Aβ40, the IC50 is 0.85 µM and the Ratio stood at 1. Moreover, the IC50 on alpha-synuclein [1] was found to be 6.34 µM. In addition, in the assay with tau protein, the “ability to inhibit the aggregation” value is reported as “inhibit the aggregation of tau protein”.
Consider `CN(C)c1cc([N+](=O)[O-])ccc1N1CCN(C(=O)c2ccccc2)CC1` [Example 25, N,N-dimethyl-2-(4-benzoylpiperazin-1-yl)-5-nitrobenzenamine], for which, in the assay on amyloid, the “circular dichroism: effect on amyloid structure” value (“circular dichroism: effect” below) is reported as “keeps amyloid from entering an aggregated structure”.
The same measure, in the same setting: in the case of `CN(C)c1ccc(N2CCN(C(=O)c3ccccc3)CC2)cc1Nc1ccccc1` [Example 34, (4-(4-(dimethylamino)-3-(phenylamino)phenyl)piperazin-1-yl)(phenyl)methanone] it was “keeps amyloid from entering an aggregated structure”.
Take `O=C(O)c1cccc(-c2ccc([N+](=O)[O-])c(Nc3ccccc3)c2)c1` [Example 46, 4′-nitro-3′-(phenylamino) biphenyl-3-carboxylic acid]: the “circular dichroism: effect” value in the assay with amyloid is given as “keeps amyloid from entering an aggregated structure”.
On to `O=C(O)c1cccc(-c2ccc([N+](=O)[O-])c(NCc3ccccc3)c2)c1` [Example 54, 3′-(benzylamino)-4′-nitrophenyl-3-carboxylic acid], for which the “circular dichroism: effect” value with amyloid is on record as “keeps amyloid from entering an aggregated structure”.
For the compound `CN1CCN(c2ccc([N+](=O)[O-])c(NCc3ccccc3)c2)CC1` [drawing 103], at Aβ40, the IC50 came out at 9 µM and the Ratio is 0.1. For the same compound, the IC50 at alpha-synuclein [1] came to 11.6 µM.
In the same order, the values of `CCCNc1cc(N2CCN(C(=O)c3ccccc3)CC2)ccc1[N+](=O)[O-]` [drawing 105] are 2.5 µM, 0.34 and 142 µM.
`O=C(c1ccccc1)N1CCN(c2cccc([N+](=O)[O-])c2)CC1` [drawing 132]: on Aβ40, the IC50 is 196 µM and the Ratio was 0.04.
In the case of `O=C(O)c1cccc(-c2ccc([N+](=O)[O-])c(NCc3ccccc3)c2)c1` [drawing 139], the IC50 against Aβ40 was 1.47 µM; on alpha-synuclein [1], 8 µM. Further, the Ratio on Aβ40 is 2.85.
On to `O=C(O)c1cccc(-c2ccc([N+](=O)[O-])c(Nc3ccccc3)c2)c1` [drawing 149], for which, on Aβ40, the IC50 was determined as 9.23 µM and the Ratio is on record as 2.3. For the same compound, the IC50 at alpha-synuclein [1] was determined as 10 µM.
Regarding `CN(C)c1cc([N+](=O)[O-])ccc1N1CCN(C(=O)c2ccccc2)CC1` [drawing 150], at Aβ40, the IC50 worked out at 27 µM and the Ratio turned out to be 0.8. Also, the IC50 at alpha-synuclein [1] was determined as 15 µM.
Turning to `O=C(c1ccccc1)N1CCN(c2cccc([N+](=O)[O-])c2)CC1` [drawing 151], on Aβ40, the IC50 stood at 360 µM and the Ratio is on record as 0.06.
Take `CN(C)c1ccc(N2CCN(C(=O)c3ccccc3)CC2)cc1Nc1ccccc1` [drawing 157]: at Aβ40, the IC50 was 3.5 µM and the Ratio was 11. The IC50 on alpha-synuclein [1] is about 7 µM.
Regarding `Oc1ccc(C=Cc2cc(O)cc(O)c2)cc1` [resveratrol], the “effective concentration for inhibition of beta-amyloid aggregation” value on beta-amyloid was 5.6 µM.
